Measured values reported in PMC11945486, “TAS1R2/TAS1R3 Single-Nucleotide Polymorphisms Affect Sweet Taste Receptor Activation by Sweeteners: The SWEET Project” (Nutrients, 2025).
Read-outs that look alike come from different tables or passages of the source. No end group written: not given here.

B1: thaumatin (protein)
chain: ATFEIVNRCSYTVWAAASKGDAALDAGGRQLNSGESWTINVEPGTKGGKIWARTDCYFDDSGSGICKTGDCGGLLRCKRFGRPPTTLAEFSLNQYGKDYIDISNIKGFNVPMDFSPTTRGCRGVRCAADIVGQCPAKLKAPGGGCNDACTVFQTSEYCCTTGKCGPTEYSRFFKRLCPDAFSYVLDKPTTVTCPGSSNYRVTFCPTA
modifications: Eight disulfides
notes: sweet-tasting plant protein, E957

Target: T1, human TAS1R2-WT/TAS1R3-P780A (Homo sapiens, UniProt Q7RTX0+Q8TE23, P780A)
T1 construct: expressed in transfected cells; host or cells: HEK293T stably expressing Gα16gust44
T1 sequence (Q8TE23 20-839): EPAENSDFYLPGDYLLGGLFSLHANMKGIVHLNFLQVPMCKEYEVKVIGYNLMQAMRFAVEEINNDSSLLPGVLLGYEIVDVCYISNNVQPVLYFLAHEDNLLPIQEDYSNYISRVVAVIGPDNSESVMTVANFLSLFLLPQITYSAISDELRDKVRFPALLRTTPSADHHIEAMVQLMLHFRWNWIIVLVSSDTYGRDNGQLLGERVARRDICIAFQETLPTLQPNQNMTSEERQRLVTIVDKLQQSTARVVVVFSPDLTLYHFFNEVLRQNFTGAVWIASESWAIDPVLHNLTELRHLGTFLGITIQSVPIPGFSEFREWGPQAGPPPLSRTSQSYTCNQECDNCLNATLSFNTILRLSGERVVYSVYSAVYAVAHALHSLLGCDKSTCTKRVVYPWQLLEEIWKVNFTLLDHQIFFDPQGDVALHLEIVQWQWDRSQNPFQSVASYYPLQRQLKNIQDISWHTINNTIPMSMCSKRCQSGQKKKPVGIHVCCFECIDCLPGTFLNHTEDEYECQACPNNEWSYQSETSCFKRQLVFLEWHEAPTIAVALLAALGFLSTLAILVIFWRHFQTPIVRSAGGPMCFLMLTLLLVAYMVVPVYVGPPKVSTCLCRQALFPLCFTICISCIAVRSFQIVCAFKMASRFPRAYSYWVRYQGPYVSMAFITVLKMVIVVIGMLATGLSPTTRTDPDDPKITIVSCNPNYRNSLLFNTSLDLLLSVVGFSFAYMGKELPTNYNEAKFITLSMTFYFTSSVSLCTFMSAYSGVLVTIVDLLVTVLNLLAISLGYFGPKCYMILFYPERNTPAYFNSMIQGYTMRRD
T1 sequence (Q7RTX0 21-852 P780A): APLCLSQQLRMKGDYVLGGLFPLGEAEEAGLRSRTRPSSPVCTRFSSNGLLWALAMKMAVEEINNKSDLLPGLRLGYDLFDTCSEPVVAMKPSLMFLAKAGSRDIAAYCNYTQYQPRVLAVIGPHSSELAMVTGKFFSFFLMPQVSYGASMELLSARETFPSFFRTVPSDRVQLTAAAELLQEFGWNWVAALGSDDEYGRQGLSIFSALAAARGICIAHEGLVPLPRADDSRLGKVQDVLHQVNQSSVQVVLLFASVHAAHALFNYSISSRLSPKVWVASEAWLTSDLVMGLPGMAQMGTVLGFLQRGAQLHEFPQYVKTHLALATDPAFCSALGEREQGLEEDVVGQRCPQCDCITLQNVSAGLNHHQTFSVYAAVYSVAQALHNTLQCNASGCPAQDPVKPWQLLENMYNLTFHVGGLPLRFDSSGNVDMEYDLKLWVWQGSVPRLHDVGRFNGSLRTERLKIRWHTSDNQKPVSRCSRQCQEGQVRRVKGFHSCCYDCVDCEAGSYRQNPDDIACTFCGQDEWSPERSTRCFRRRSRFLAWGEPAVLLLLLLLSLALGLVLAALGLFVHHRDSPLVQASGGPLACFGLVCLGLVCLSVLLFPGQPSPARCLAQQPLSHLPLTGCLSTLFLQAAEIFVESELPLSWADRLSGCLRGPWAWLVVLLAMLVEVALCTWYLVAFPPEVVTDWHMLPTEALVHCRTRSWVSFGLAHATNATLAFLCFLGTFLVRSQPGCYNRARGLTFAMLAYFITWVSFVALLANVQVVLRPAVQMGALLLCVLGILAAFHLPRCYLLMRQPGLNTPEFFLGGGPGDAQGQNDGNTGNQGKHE
Test: Calcium mobilisation assay, TAS1R2-WT with TAS1R3 variant P780A
Format: cell-based
Settings: for Max ΔF/F0: maximal signal amplitude
Text: The coding sequences for TAS1R2 and TAS1R3 were commercially synthesised, and the human codon was optimised for expression in human cells. The coding sequences of human TAS1R2 and TAS1R3 were subcloned and inserted into the mammalian expression vectors pcDNA6/myc-HisA and pcDNA4/myc-HisA (Invitrogen; Thermo Fisher Scientific; Illkirch, France) between the EcoRI and NotI restriction sites, generating the plasmids pcDNA6-TAS1R2 and pcDNA4-TAS1R3, respectively. To increase protein expression in mammalian cells, an upstream start codon was used, which was a sequence called MAX, corresponding to the QBI SP163 element also described in pcDNA4-HisMax (Invitrogen; Thermo Fisher Scientific; Illkirch, France). To measure the expression level of the receptor by immunohistochemistry, we used the FLAG sequence ([…]) in the C-terminal position, which encodes the FLAG tag epitope. SNP variants of TAS1R2 and TAS1R3 were constructed based on […], respectively, using site-directed mutagenesis (Genewiz; Leipzig, Germany).
The HEK293T cells were kindly provided by Jay P. Slack (Givaudan Flavors Corporation; Cincinnati, OH, USA). HEK293T cells stably transfected with Gα16gust44 [43, 67] were seeded in poly-D-lysine-coated clear-bottom black 96-well plates (0.35 × 10^5 cells/well) in high-glucose DMEM supplemented with 2 mM GlutaMAX, 10% dialysed foetal bovine serum with penicillin/streptomycin and G418 (400 μg/mL) at 37 °C and 6.3% CO2 in a humidified atmosphere as previously reported. […] As a negative control, HEK293T cells were mock-transfected with the empty expression vector. After a further 24 h of incubation, the HEK293T cells were washed with C1 buffer (130 mM NaCl, 5 mM KCl, 10 mM HEPES pH 7.4 and 2 mM CaCl2). The 96-well plates containing the cells were then stimulated with sweet-tasting compounds. […] Different concentration ranges were tested depending on the sweet compound injected. The Ca^2+ changes were expressed as fractional changes in fluorescent light intensity: ΔF/F = (F − F0)/F0, where F was the fluorescent light intensity at each point, and F0 was the value of emitted fluorescent light prior to stimulus application. To calculate dose–response relationships, the changes in fluorescence upon stimulus application were averaged, mock-subtracted and baseline-corrected. The dose–response data obtained were adjusted using a 4-parameter logistic equation. The half-maximal effective concentrations (EC50 values) and maximal signal amplitudes were calculated using SigmaPlot software (version 15.0) (Systat Software; San Jose, CA, USA).
For in vitro calcium mobilisation assay performed on hTAS1R2-SNPs, hTAS1R3-SNPs and mTAS1R3-I60T, 6 to 7 concentrations were tested for each sweet compound, plus buffer alone. All concentration–receptor combinations were measured in duplicate, and each experiment was repeated at least 4 times (8 wells/concentration). Results were expressed for each concentration as ΔF/F mean ± SEM and represented as dose–response curves.

| Molecule | R1 = Variant EC50/WT EC50 | Max ΔF/F0 | EC50 (read-out: EC50) [µM] | EC50 (brazzein) [µg/mL] |
| --- | --- | --- | --- | --- |
| CC1=CC(=O)NS(=O)(=O)O1 [Acesulfame K, acesulfame K] | 0.7 | 0.30 ± 0.01 | 421 ± 31 | – |
| O=S(=O)(O)NC1CCCCC1 [Cyclamate, cyclamate] | – | – | 1170 ± 62 | – |
| C[C@H](CC[C@@H](O[C@@H]1O[C@H](CO[C@@H]2O[C@H](CO)[C@@H](O)[C@H](O)[C@H]2O)[C@@H](O)[C@H](O)[C@H]1O[C@@H]1O[C@H](CO)[C@@H](O)[C@H](O)[C@H]1O)C(C)(C)O)[C@H]1CC[C@@]2(C)[C@@H]3CC=C4[C@@H](CC[C@H](O[C@@H]5O[C@H](CO[C@@H]6O[C@H](CO)[C@@H](O)[C@H](O)[C@H]6O)[C@@H](O)[C@H](O)[C@H]5O)C4(C)C)[C@]3(C)[C@H](O)C[C@]12C [Mogroside V, mogroside V] | 0.7 | 1.13 ± 0.04 | 22.5 ± 2.2 | – |
| COc1ccc(CCC(=O)c2c(O)cc(O[C@@H]3O[C@H](CO)[C@@H](O)[C@H](O)[C@H]3O[C@@H]3O[C@@H](C)[C@H](O)[C@@H](O)[C@H]3O)cc2O)cc1O [NHDC, neohesperidin dihydrochalcone] | 0.9 | 1.50 ± 0.01 | 46.4 ± 12.9 | – |
| COC(=O)[C@H](Cc1ccccc1)NC(=O)[C@H](CC(=O)O)NCCC(C)(C)C [Neotame] | 0.8 | 0.63 ± 0.02 | 1.03 ± 0.08 | – |
| C=C(C)[C@@H]1CC=C(/C=N/O)CC1 [Perillartine, perillartine] | 0.9 | 1.44 ± 0.20 | 12.7 ± 5 | – |
| C=C1C[C@@]23CC[C@H]4[C@@](C)(CCC[C@@]4(C)C(=O)O[C@@H]4O[C@H](CO)[C@@H](O)[C@H](O[C@@H]5O[C@H](CO)[C@@H](O)[C@H](O)[C@H]5O)[C@H]4O[C@@H]4O[C@H](CO)[C@@H](O)[C@H](O)[C@H]4O)[C@@H]2CC[C@]1(O[C@@H]1O[C@H](CO)[C@@H](O)[C@H](O[C@@H]2O[C@H](CO)[C@@H](O)[C@H](O)[C@H]2O)[C@H]1O[C@@H]1O[C@H](CO)[C@@H](O)[C@H](O)[C@H]1O)C3 [Rebaudioside M, rebaudioside M] | 0.6 | 1.21 ± 0.05 | 23 ± 2.6 | – |
| OC[C@H]1O[C@H](O[C@]2(CCl)O[C@H](CCl)[C@@H](O)[C@@H]2O)[C@H](O)[C@@H](O)[C@H]1Cl [Sucralose] | 1.4 | 0.76 ± 0.03 | 149 ± 12 | – |
| brazzein (QDKCKKVYENYPVSKCQLANQCNYDCKLDKHARSGECFYDEKRNLQCICDYCEY; ends and bridges not checked; cysteine pairing not given here; UniProt P56552 1-54, looked up) [sweet-tasting protein obtained by recombinant production using the yeast Pichia pastoris] | 0.7 | 1.06 ± 0.06 | – | 80.7 ± 14.8 |
| thaumatin | 0.8 | 0.86 ± 0.06 | – | – |
| B1 | – | – | 7.8 ± 1.3 | – |
